From the METLIN SMRT retention time set (Domingo-Almenara et al. 2019)

Test: gradient 5% acetonitrile 3 min, to 50% in 2 min, to 85% in 15 min, held 3 min, 100 µL/min
Settings: column: Zorbax Extend-C18 2.1 x 50 mm; eluents: water / acetonitrile, 0.1% formic acid
Summary of the method: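 Pure standards were analyzed in mixtures of ~100 molecules using HPLC coupled to a quadrupole time-of-flight mass spectrometer, in both positive and negative ionization mode. Separation used a Zorbax Extend-C18 column (2.1 × 50 mm, 1.8 μm) at 100 μL/min, with water and acetonitrile each containing 0.1% formic acid. Dead and dwell volumes were 40 μL and 900 μL, and data were collected over 3 months. Retention time was read from computationally picked adduct peaks, each inspected manually.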

SMILES | RP-LC retention time
COc1cccc([C@@]2(O)CCCC[C@H]2CN(C)C)c1 | 591 s
Cc1ccc(-c2nc(-c3ccc4c(c3)oc(=O)n4C(C)C)no2)cc1 | 1280 s
CCc1nc(C2CN(CCc3ccccc3)CC23CCCC3)no1 (stereo not drawn) | 670 s
O=C(C1=C2CCCN2c2ccccc2S1(=O)=O)N1CCN(c2ccc(F)cc2)CC1 | 796 s
COCCNC(=O)C1(CCO)CCN(Cc2ccccc2)C1 (stereo not drawn) | 560 s
CCNc1nc(C)cc(N2CCN(S(=O)(=O)c3ccc(C(F)(F)F)cc3)CC2)n1 | 754 s
CCc1nncn1C1CCN(S(=O)(=O)c2cccc(Cl)c2)CC1 | 726 s
CC1=NC(C)(C)CC2CCC(O)C12 (stereo not drawn) | 683 s
CCCN(c1cccc(Cl)c1)c1nc(C(=O)OCC)nc2ccccc12 | 1200 s
COc1cccc(CN2CC(c3nc(CCOCc4ccccc4)no3)C2)c1 | 708 s
CCN(Cc1cn(C)nc1C)C(=O)C1CN(C(=O)c2ccccc2)CC12CCCCC2 (stereo not drawn) | 793 s
CCCc1nc(-c2cc3ccccc3nc2N2CCN(C)CC2)no1 | 671 s
CCC(C)C(NC(=O)Cc1ccccc1Cl)C(=O)Nc1nc2ccccc2[nH]1 (stereo not drawn) | 776 s
COCC1CN(C2CCC2)CC12CCN(C(=O)Cc1ccsc1)CC2 (stereo not drawn) | 608 s
Cc1noc(C)c1S(=O)(=O)N1CCOC(c2ccccc2)C1 (stereo not drawn) | 882 s
OCc1cnc(SCc2cccc(C(F)(F)F)c2)n1Cc1ccc2c(c1)OCO2 | 649 s
Clc1ccccc1CNc1nnc(-c2nc(C3CC3)no2)c2ccccc12 | 1010 s
CCOc1ccc(-c2nc(-c3ccc4oc(C)nc4c3)no2)cc1OCC | 1170 s

SMILES | RP-LC retention time
Cc1cc(C)c(S(=O)(=O)N2CCc3c(c(-c4nnc(-c5ccc(F)cc5)o4)nn3C)C2)cc1C | 1090 s
CNC(=O)C1CN(C(=O)Cc2ccc(C)cc2)CC12CCCC2 (stereo not drawn) | 722 s
CCOC(=O)c1c(C)n(Cc2ccco2)c2ccc(O)cc12 | 854 s
CCCN(C)C(=O)CCC1CCN(c2cc(NCC)ncn2)CC1 | 571 s
Cn1cc2c3c(cccc31)CN(C(=O)Cc1ccccc1F)CC2 | 954 s
CCOC(=O)C1C(=O)C=C(c2ccco2)CC1c1ccccc1Cl (stereo not drawn) | 1090 s
CCOC(=O)c1c(C)c(CCC(=O)NCCN2CCOCC2)c(C)n1C | 622 s
Cc1nc(Cn2cccc2C(=O)Nc2ccccc2)no1 | 820 s
O=C(Nc1ccc2c(c1)OCCO2)N1CCCC(Cn2c(C3CC3)nc3cccnc32)C1 (stereo not drawn) | 645 s
CN(C)[C@@H]1CN(C(=O)c2ccc(Cn3cncn3)o2)CC[C@@H]1CO | 518 s
COCC1(O)CCOC2(CCN(Cc3ccc(F)cc3)CC2)C1 (stereo not drawn) | 654 s
CN1CCN(S(=O)(=O)c2ccc(Cl)c3ccccc23)CC1 | 580 s
O=C(NCc1ccc2c(c1)OCO2)C1CCCN(S(=O)(=O)c2c[nH]c(C(=O)N3CCCC3)c2)C1 (stereo not drawn) | 738 s
CCOC(=O)c1c(S(=O)(=O)N2CCC(C(=O)Nc3ccc(F)cc3F)CC2)c(C)n(CC)c1C | 895 s
CCNC(=O)NCCC1CCN(S(=O)(=O)c2ccc(C)cc2)CC1 | 748 s
O=C(NC1CCN(C(=O)c2cc(-c3cccs3)[nH]n2)CC1)c1ccc(Cl)cc1 | 778 s
CCOc1ccc(-c2ccc(=O)n(CCNC(=O)c3ccc(N(C)C)cc3)n2)cc1 | 732 s
O=C(O)c1nnn(-c2ccccc2F)c1-c1cccnc1 | 612 s

The remaining lines, values ahead:

RP-LC retention time | SMILES
1140 s | COc1ccc(NS(=O)(=O)c2cc(-c3cc(C(F)(F)F)on3)sc2C)cc1Cl
1090 s | CCOc1ccc(-c2nc(C3CC(=O)N(c4ccc(C)cc4)C3)no2)cc1OCC (stereo not drawn)
800 s | COc1ccc(NC(=O)c2ccc3ncsc3c2)c([N+](=O)[O-])c1
833 s | CCOC(=O)c1nc(NCc2cccc(Cl)c2)c2ccccc2n1
860 s | O=S(=O)(c1cccn2c(SCc3cccc(Cl)c3)nnc12)N1CCCC1
730 s | O=C(Nc1ccc2c(c1)OCO2)C1CCc2sc(C(=O)N3CCCC3)cc2C1 (stereo not drawn)
648 s | COc1ccc(OC)c(NC(=O)N2CCc3c(c(C(=O)N4CCOCC4)nn3C)C2)c1
842 s | N#Cc1cn(CC(=O)NCc2ccc3c(c2)OCCCO3)c2ccccc12
770 s | C=CCNC(=O)N1CCCN(C2=NS(=O)(=O)C(c3ccc(C)c(C)c3)=C2C)CC1
585 s | CCC(Oc1ccc(=O)n(-c2ccc(F)cc2)n1)C(=O)NCCN1CCN(C)CC1 (stereo not drawn)
1210 s | Cc1cccc(-c2noc(C3CCCN3S(=O)(=O)c3ccc(C)c(C)c3)n2)c1 (stereo not drawn)
953 s | CCc1noc(NC(C)=O)c1-c1ccc(C)c(S(=O)(=O)N2CCCc3ccccc32)c1
1060 s | O=C(CCC1CCCC1)N1CCc2c([nH]c3ccccc23)C1c1ccc(Cl)cc1 (stereo not drawn)
984 s | COc1ccc(OC)c(NC(=O)NC(C(=O)N2CCc3ccccc32)C(C)C)c1 (stereo not drawn)
784 s | CCN1C(=O)COc2ccc(-c3nc(NC(=O)c4cccnc4)sc3C)cc21
874 s | COCCCn1c(=O)c2ccccc2n(Cc2nc(-c3ccccc3OC)no2)c1=O

RP-LC retention time | SMILES
673 s | CCCNC(=O)c1ccc2cnn(C)c2c1
906 s | COc1ccc(-c2nn(-c3ccccc3)cc2C2NC(=O)NC(C)=C2C(=O)OC(C)C)cc1 (stereo not drawn)
586 s | Cc1cc(C)n(-c2ccnc(N3CCC(C(N)=O)CC3)n2)n1
724 s | CCCNC(=O)C1CCN(c2ccc(SCC(=O)Nc3cc(F)ccc3Cl)nn2)CC1
953 s | O=C1[C@H]2CN(Cc3ccc(Cl)c(F)c3)C[C@H]2C(=O)N1Cc1ccc2c(c1)OCO2
777 s | COc1ccc(Br)cc1CNC(=O)Cn1cnc2nc3c(cc2c1=O)CCCC3
761 s | COc1ccccc1-c1noc(C2CCCN2C(=O)NCc2ccco2)n1 (stereo not drawn)
603 s | Cn1c(C(=O)NCCN2CCOCC2)cc2c(=O)oc3ccccc3c21
680 s | Cc1cccc(S(=O)(=O)N2CCc3c(C(=O)NCCCN4CCCCC4)cccc32)c1
843 s | COc1cccc(NC(=O)N2CCCC2c2nc(-c3ccccc3OC)no2)c1 (stereo not drawn)
836 s | CCCN1C(=O)c2cc(C(=O)NCc3ccccc3F)nn2CC1(C)C(=O)NC1CCCC1 (stereo not drawn)
939 s | COCCCNC(=O)N1CCCCCC1c1ccc(C)cc1 (stereo not drawn)
579 s | CCC(=O)N1CCc2cc(N3CC(C(=O)NCc4cccnc4)CC3=O)ccc21 (stereo not drawn)
633 s | O=C(NCc1ccc(Br)cc1)c1cn2c(n1)CCCC2
631 s | CC(C)n1cnc2cc(CNC(=O)CCc3ccccc3)ccc21
1300 s | Cc1cc(C)cc(NC(=O)Cn2ccc3ccc(-c4nnc(C)o4)cc32)c1
